# Data reported in US9512144B2, “Imidazothiazole sufonamides as nematicides” (BAYER CROPSCIENCE AKTIENGESELLSCHAFT, priority 2013, dated 2016).
# Tested on: Meloidogyne incognita
# Assay: Meloidogyne incognita test (MELGIN): sand, salad seeds, gall formation after 14 days
# Format: in vivo
# Details: application rate 20 ppm, salad seedlings in sand
# Method: Solvent: 125.0 parts by weight of acetone To produce a suitable preparation of active compound, 1 part by weight of active compound is mixed with the stated amount of solvent, and the concentrate is diluted with water to the desired concentration. Vessels are filled with sand, a solution of the active ingredient, a suspension containing eggs and larvae of the southern root-knot nematode (Meloidogyne incognita) and salad seeds. The salad seeds germinate and the seedlings grow. Galls develop in the roots. After 14 days the nematicidal activity is determined on the basis of the percentage of gall formation. 100% means that no galls were found; 0% means that the number of galls found on the roots of the treated plants was equal to that in untreated control plants.
row,Structure (SMILES),nematicidal activity on the basis of the percentage of gall formation (100% = no galls)
1,O=C(NS(=O)(=O)c1cc(C(F)(F)F)ccc1Cl)c1cn2cc(Cl)sc2n1 [Example I-1-21],100%
2,Cc1ccc(C(C)(C)C)cc1S(=O)(=O)NC(=O)c1cn2cc(C(F)(F)C(F)(F)F)sc2n1 [Example I-1-233],100%
3,Cc1c(C(F)(F)F)sc2nc(C(=O)NS(=O)(=O)c3ccc(Cl)cc3)cn12 [Example I-1-156],90%
4,Cc1cc(S(=O)(=O)NC(=O)c2cn3cc(Cl)sc3n2)c(C)cc1C#N [Example I-1-45],100%
5,O=C(NS(=O)(=O)c1cccc(Cl)c1)c1cn2cc(C(F)(F)F)sc2n1 [Example I-1-272],90%
6,Cc1ccc(OC(F)F)cc1S(=O)(=O)NC(=O)c1cn2cc(C(F)(F)F)sc2n1 [Example I-1-7],90%
7,O=C(NS(=O)(=O)c1c(Cl)cccc1Cl)c1cn2cc(Cl)sc2n1 [Example I-1-43],100%
8,COc1ccc(Cl)c(S(=O)(=O)NC(=O)c2cn3cc(Cl)sc3n2)c1 [Example I-1-19],100%
9,CC(C)(C)c1cn2cc(C(=O)NS(=O)(=O)c3c(Cl)cccc3Cl)nc2s1 [Example I-1-13],100%
10,Cc1ccc(Cn2cccn2)cc1S(=O)(=O)NC(=O)c1cn2cc(C(F)(F)F)sc2n1 [Example I-1-288],90%
11,CSc1cn2cc(C(=O)NS(=O)(=O)c3cc(Cl)ccc3Cl)nc2s1 [Example I-1-297],90%
12,COc1ccc(Cl)c(S(=O)(=O)NC(=O)c2nc3sc(C(F)(F)F)cn3c2I)c1 [Example I-3-6],100%
13,O=C(NS(=O)(=O)c1cc(Cl)ccc1Cl)c1cn2cc(Cl)sc2n1 [Example I-1-18],90%
14,O=C(NS(=O)(=O)c1cc(Br)ccc1Br)c1cn2cc(C(F)(F)F)sc2n1 [Example I-1-312],100%
15,O=C(NS(=O)(=O)c1c(F)cccc1F)c1cn2cc(C(F)(F)F)sc2n1 [Example I-1-11],100%
16,Cc1c(Cl)ccc(S(=O)(=O)NC(=O)c2cn3cc(C(F)(F)F)sc3n2)c1C [Example I-1-307],100%
17,O=C(NS(=O)(=O)c1cc(Cl)ccc1Cl)c1cn2cc(C(F)(F)F)sc2n1 [Example I-1-6],100%
18,COc1ccc(Cl)c(S(=O)(=O)NC(=O)c2nc3sc(C(F)(F)F)cn3c2Cl)c1 [Example I-3-4],100%
19,Cc1c(C(F)(F)F)sc2nc(C(=O)NS(=O)(=O)c3cccc(Cl)c3)cn12 [Example I-1-155],100%
20,CC(=O)c1ccc(Cl)c(S(=O)(=O)NC(=O)c2cn3cc(C(F)(F)F)sc3n2)c1 [Example I-1-301],100%

row,Structure (SMILES),nematicidal activity on the basis of the percentage of gall formation (100% = no galls)
1,CSc1cn2cc(C(=O)NS(=O)(=O)c3c(Cl)cccc3Cl)nc2s1 [Example I-1-300],100%
2,COc1ccc(Cl)c(S(=O)(=O)NC(=O)c2cn3cc(Br)sc3n2)c1 [Example I-1-60],100%
3,COc1ccc(Cl)c(S(=O)(=O)NC(=O)c2cn3cc(C(C)(C)C)sc3n2)c1 [Example I-1-23],100%
4,O=C(NS(=O)(=O)c1ccccc1OC(F)(F)F)c1cn2cc(C(F)(F)F)sc2n1 [Example I-1-281],90%
5,Cc1cc(S(=O)(=O)NC(=O)c2cn3cc(C(F)(F)F)sc3n2)c(C)cc1Br [Example I-1-14],100%
6,O=C(NS(=O)(=O)c1ccccc1-c1ccccc1)c1cn2cc(C(F)(F)C(F)(F)F)sc2n1 [Example I-1-235],100%
7,COc1ccc(Cl)c(S(=O)(=O)NC(=O)c2cn3cc(SC)sc3n2)c1 [Example I-1-299],90%
8,O=C(NS(=O)(=O)c1ccccc1Cl)c1nc2sc(C(F)(F)F)cn2c1I [Example I-3-5],100%
9,CC(=O)c1ccc(Cl)c(S(=O)(=O)NC(=O)c2cn3c(C)c(C(F)(F)F)sc3n2)c1 [Example I-1-302],100%
10,CSc1cn2cc(C(=O)NS(=O)(=O)c3ccccc3Cl)nc2s1 [Example I-1-298],100%
11,Cc1ccc(C)c(S(=O)(=O)NC(=O)c2cn3c(C(F)(F)F)csc3n2)c1 [Example I-1-270],100%
12,Cc1ccc(C)c(S(=O)(=O)NC(=O)c2cn3cc(Cl)sc3n2)c1 [Example I-1-22],100%
13,COc1ccc(Cl)c(S(=O)(=O)NC(=O)c2nc3sc(C(F)(F)F)cn3c2Br)c1 [Example I-3-2],100%
14,O=C(NS(=O)(=O)c1ccc(Br)c(Cn2cccn2)c1)c1cn2cc(C(F)(F)C(F)(F)F)sc2n1 [Example I-1-293],100%
15,O=C(NS(=O)(=O)c1ccccc1Cl)c1cn2cc(Cl)sc2n1 [Example I-1-17],100%
16,CCCOc1ccc(Cl)c(S(=O)(=O)NC(=O)c2cn3cc(C(F)(F)C(F)(F)F)sc3n2)c1 [Example I-1-238],100%
17,Cc1ccc(Cl)cc1S(=O)(=O)NC(=O)c1cn2c(C)c(C(F)(F)F)sc2n1 [Example I-1-290],100%
18,O=C(NS(=O)(=O)c1ccccc1F)c1cn2cc(C(F)(F)F)sc2n1 [Example I-1-212],100%
19,CSc1ccc(Cl)c(S(=O)(=O)NC(=O)c2cn3cc(C(F)(F)F)sc3n2)c1 [Example I-1-308],100%
20,O=C(NS(=O)(=O)c1cc(Cn2cccn2)ccc1Cl)c1cn2cc(C(F)(F)C(F)(F)F)sc2n1 [Example I-1-292],100%

row,Structure (SMILES),nematicidal activity on the basis of the percentage of gall formation (100% = no galls)
1,O=C(NS(=O)(=O)c1cc(Cl)ccc1Cl)c1cn2cc(C(F)(F)C(F)(F)F)sc2n1 [Example I-1-145],100%
2,CSc1cn2cc(C(=O)NS(=O)(=O)c3cc(C(F)(F)F)ccc3Cl)nc2s1 [Example I-1-296],100%
3,O=C(NS(=O)(=O)c1ccc(Br)c(Cn2cccn2)c1)c1cn2cc(C(F)(F)F)sc2n1 [Example I-1-275],90%
4,O=C(NS(=O)(=O)c1ccc(Cl)cc1)c1cn2cc(C(F)(F)C(F)(F)F)sc2n1 [Example I-1-144],90%
5,O=C(NS(=O)(=O)c1cc(Cl)ccc1Cl)c1cn2c(C(F)(F)F)csc2n1 [Example I-1-31],100%
6,CC(C)(C)c1cn2cc(C(=O)NS(=O)(=O)c3ccccc3Cl)nc2s1 [Example I-1-16],100%
7,Cc1ccc(Cn2cccn2)cc1S(=O)(=O)NC(=O)c1cn2cc(C(F)(F)C(F)(F)F)sc2n1 [Example I-1-295],90%
8,O=C(NS(=O)(=O)c1ccc(Cl)cc1Cl)c1cn2cc(C(F)(F)F)sc2n1 [Example I-1-279],90%
9,O=C(NS(=O)(=O)c1ccc(Cl)cc1)c1cn2cc(Cl)sc2n1 [Example I-1-51],100%
10,O=C(NS(=O)(=O)c1ccc(Cl)cc1Cl)c1cn2cc(C(F)(F)C(F)(F)F)sc2n1 [Example I-1-224],100%
11,Cc1ccc(OC(F)F)c(S(=O)(=O)NC(=O)c2cn3cc(C(F)(F)F)sc3n2)c1 [Example I-1-314],90%
12,O=C(NS(=O)(=O)c1cccc(Cl)c1)c1cn2cc(Cl)sc2n1 [Example I-1-50],100%
13,O=C(NS(=O)(=O)c1ccccc1OC(F)(F)F)c1cn2cc(C(F)(F)C(F)(F)F)sc2n1 [Example I-1-234],100%
14,CCCOc1ccc(Cl)cc1S(=O)(=O)NC(=O)c1cn2cc(C(F)(F)F)sc2n1 [Example I-1-313],100%
15,O=C(NS(=O)(=O)c1ccccc1Cl)c1cn2nc(C(F)(F)F)sc2n1 [Example I-1-202],90%
16,CC(C)(C)c1cn2cc(C(=O)NS(=O)(=O)c3cc(Cl)ccc3Cl)nc2s1 [Example I-1-15],100%
17,O=C(NS(=O)(=O)c1ccccc1Cl)c1nc2sc(C(F)(F)F)cn2c1Cl [Example I-3-3],100%
18,CCc1ccc(Cl)cc1S(=O)(=O)NC(=O)c1cn2cc(C(F)(F)F)sc2n1 [Example I-1-309],100%
19,COc1ccccc1S(=O)(=O)NC(=O)c1cn2cc(C(F)(F)C(F)(F)F)sc2n1 [Example I-1-248],100%
